# Literature values as cited in patent US20020146463A1, “Health promoting compositions” (priority 2000, published 2002).
# Key:
# [1] = 500 patients with skin conditions, 180-300 mg beta carotene/day for 10 years
# [2] = high versus low levels of folic acid in diet
# [3] = three recent trials
compound,measurement,setting,value
CC1=C(/C=C/C(C)=C/C=C/C(C)=C/C=C/C=C(C)/C=C/C=C(C)/C=C/C2=C(C)CCCC2(C)C)C(C)(C)CCC1 [beta carotene],adverse effects,[1],without report of adverse effects
Nc1nc2ncc(CNc3ccc(C(=O)N[C@@H](CCC(=O)O)C(=O)O)cc3)nc2c(=O)[nH]1 [folic acid],less likely to suffer a fatal heart attack,[2],69%
vitamin E,reduction of the risk of heart attacks,[3],more than half
